Each cell line was assayed with Cc1ccccc1C(C(=O)NC1CCCCC1)N(C(=O)Cn1ccnc1C)c1cccc(F)c1 [IDH-C35] + COc1cc2c(Oc3ccc(NC(=O)C4(C(=O)Nc5ccc(F)cc5)CC4)cc3F)ccnc2cc1OCCCN1CCOCC1 [Foretinib] (partner 0.25 µM) (assay: relative viability (nuclei count vs DMSO), 5 days (fraction); higher = more cells survive). Conditions: first compound 0.08 µM.
Method in brief: (§1)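 Each reported value is a median over duplicate plates. It expresses relative viability: treated-well nuclei count divided by vehicle-well nuclei count. Lung cancer cell lines in 1536-well plates were dosed by pin tool a day after seeding, alone with one drug or with a fixed anchor-drug dose plus five library-drug doses (not always all listed) in √10 steps, and nuclei were counted after 5 days.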

Cell Line | relative viability
NCI-H2342 | 0.969
SK-MES-1 | 0.983
H3255 | 1.06
COR-L23 | 0.969
COR-L 105 | 0.948
IA-LM | 1.06
LOU-NH91 | 0.949
ChaGo-K-1 | 0.871
NCI-H2170 | 0.98
A549 | 0.881
SW 900 | 0.729
NCI-H661 | 1.03
NCI-H1299 | 1.1
NCI-H1563 | 1.01
ABC-1 | 1.16
NCI-H358 | 0.757
NCI-H650 | 1.03

Same assay, conditions: first compound 0.253 µM

Cell Line | relative viability
NCI-H1623 | 0.854
NCI-H727 | 0.693
NCI-H1650 | 1.13
EBC-1 | 0.109
NCI-H1703 | 0.335
NCI-H1993 | 0.688
SW 1573 | 0.873
NCI-H838 | 0.991
LCLC-103H | 0.717
NCI-H520 | 0.749
NCI-H2126 | 1.22
EMC-BAC-2 | 1.04
NCI-H2085 | 0.907
Calu-6 | 0.899
HCC-366 | 0.981
NCI-H1666 | 0.92
NCI-H596 | 0.796
LK-2 | 1.36

Cell Line | relative viability
NCI-H2087 | 0.924
NCI-H2342 | 1.02
SK-MES-1 | 0.955
H3255 | 0.838
COR-L23 | 0.95
COR-L 105 | 1.16
IA-LM | 1.24
LOU-NH91 | 0.946
ChaGo-K-1 | 0.973
NCI-H2170 | 0.97
A549 | 0.863
SW 900 | 0.909
NCI-H661 | 0.964
NCI-H1299 | 1.07
NCI-H1563 | 1.01
ABC-1 | 0.967
NCI-H358 | 0.738
NCI-H650 | 1.04

Same assay, conditions: first compound 0.8 µM

Cell Line | relative viability
NCI-H1623 | 0.811
NCI-H727 | 1.07
NCI-H1650 | 1.23
EBC-1 | 0.0986
NCI-H1703 | 0.334
NCI-H1993 | 0.811
SW 1573 | 0.915
NCI-H838 | 0.95
LCLC-103H | 0.85
NCI-H520 | 0.821
NCI-H2126 | 1.15
EMC-BAC-2 | 1.1
NCI-H2085 | 0.902
Calu-6 | 0.908
HCC-366 | 0.937
NCI-H1666 | 0.982
NCI-H596 | 0.775
LK-2 | 1.27

Cell Line | relative viability
NCI-H2087 | 1.15
NCI-H2342 | 1.17
SK-MES-1 | 0.897
H3255 | 0.886
COR-L23 | 0.891
COR-L 105 | 0.898
IA-LM | 1.12
LOU-NH91 | 0.92
ChaGo-K-1 | 0.913
NCI-H2170 | 1.1
A549 | 0.968
SW 900 | 0.877
NCI-H661 | 0.981
NCI-H1299 | 1.01
NCI-H1563 | 0.872
ABC-1 | 0.918
NCI-H358 | 0.685
NCI-H650 | 1.05

Same assay, conditions: first compound 2.53 µM

Cell Line | relative viability
NCI-H1623 | 0.896
NCI-H727 | 0.832
NCI-H1650 | 0.879
EBC-1 | 0.108
NCI-H1703 | 0.367
NCI-H1993 | 0.787
SW 1573 | 0.933
NCI-H838 | 0.998
LCLC-103H | 0.754
NCI-H520 | 0.72
NCI-H2126 | 1.14
EMC-BAC-2 | 0.925
NCI-H2085 | 1
Calu-6 | 0.919
NCI-H1666 | 1.01
LK-2 | 1.12

Cell Line | relative viability
NCI-H2342 | 1.16
SK-MES-1 | 0.971
H3255 | 1.04
COR-L23 | 1.01
COR-L 105 | 1.07
IA-LM | 1.12
LOU-NH91 | 0.918
ChaGo-K-1 | 0.928
NCI-H2170 | 0.937
A549 | 1.05
SW 900 | 0.6
NCI-H661 | 0.988
NCI-H1299 | 1.06
NCI-H1563 | 0.907
ABC-1 | 1.08
NCI-H358 | 0.769

Same assay, conditions: first compound 8 µM

Cell Line | relative viability
NCI-H1623 | 0.861
NCI-H727 | 0.764
NCI-H1650 | 1.14
EBC-1 | 0.109
NCI-H1703 | 0.348
NCI-H1993 | 0.759
SW 1573 | 0.928
NCI-H838 | 1.03
LCLC-103H | 0.736
NCI-H520 | 0.654
NCI-H2126 | 1.06
EMC-BAC-2 | 0.944
NCI-H2085 | 0.897
Calu-6 | 0.868
HCC-366 | 0.938
NCI-H1666 | 0.848
NCI-H596 | 0.763
LK-2 | 1.48

Cell Line | relative viability
NCI-H2087 | 1.17
NCI-H2342 | 1.01
SK-MES-1 | 0.756
H3255 | 0.854
COR-L23 | 1.03
COR-L 105 | 0.898
IA-LM | 1.1
LOU-NH91 | 0.913
ChaGo-K-1 | 0.839
NCI-H2170 | 0.951
A549 | 0.835
SW 900 | 0.926
NCI-H661 | 1.03
NCI-H1299 | 1.09
NCI-H1563 | 0.774
ABC-1 | 1.21
NCI-H358 | 0.603
NCI-H650 | 0.981

What follows are cell lines tested with Cc1ccccc1C(C(=O)NC1CCCCC1)N(C(=O)Cn1ccnc1C)c1cccc(F)c1 [IDH-C35] + Nc1nc2[nH]cc(CCc3ccc(C(=O)N[C@@H](CCC(=O)O)C(=O)O)cc3)c2c(=O)[nH]1 [Pemetrexed] (partner 0.2 µM) in the same assay as above. Conditions: first compound 0.08 µM.
Method in brief: as §1

Cell Line | relative viability
NCI-H522 | 0.874
NCI-H1650 | 0.334
NCI-H1993 | 0.527
SW 1573 | 0.692
NCI-H838 | 0.241
LCLC-103H | 0.452
NCI-H520 | 0.776
NCI-H2126 | 0.68
EMC-BAC-2 | 0.457
NCI-H2085 | 0.943
HCC-366 | 0.143
NCI-H1666 | 0.881
NCI-H596 | 0.473
LK-2 | 0.259
NCI-H2087 | 0.732
NCI-H2342 | 0.78
SK-MES-1 | 0.91
H3255 | 0.595
COR-L23 | 0.18
COR-L 105 | 1.03
LOU-NH91 | 0.422
ChaGo-K-1 | 0.244
NCI-H2170 | 0.277
HCC-44 | 0.6
SW 900 | 0.51
NCI-H661 | 0.95
NCI-H1792 | 1.03
NCI-H1563 | 0.827
NCI-H358 | 0.168
NCI-H650 | 0.911

Same assay, conditions: first compound 0.253 µM

Cell Line | relative viability
NCI-H522 | 1.04
NCI-H1650 | 0.4
NCI-H1993 | 0.628
SW 1573 | 0.889
NCI-H838 | 0.248
LCLC-103H | 0.49
NCI-H520 | 0.548
NCI-H2126 | 0.703
EMC-BAC-2 | 0.477
NCI-H2085 | 0.889
HCC-366 | 0.156
NCI-H1666 | 0.825
NCI-H596 | 0.475
LK-2 | 0.322
NCI-H2087 | 0.592
NCI-H2342 | 0.742

Cell Line | relative viability
SK-MES-1 | 0.988
H3255 | 0.589
COR-L23 | 0.205
COR-L 105 | 1.19
LOU-NH91 | 0.393
ChaGo-K-1 | 0.27
NCI-H2170 | 0.341
HCC-44 | 0.639
SW 900 | 0.459
NCI-H1648 | 0.758
NCI-H661 | 0.948
NCI-H1792 | 0.711
NCI-H1563 | 0.803
NCI-H358 | 0.179
NCI-H650 | 0.96

Same assay, conditions: first compound 0.8 µM

Cell Line | relative viability
NCI-H522 | 0.818
NCI-H1650 | 0.323
NCI-H1993 | 0.677
SW 1573 | 0.879
NCI-H838 | 0.272
LCLC-103H | 0.467
NCI-H520 | 0.715
NCI-H2126 | 0.696
EMC-BAC-2 | 0.473
NCI-H2085 | 0.889
HCC-366 | 0.171
NCI-H1666 | 0.822
NCI-H596 | 0.529
LK-2 | 0.255
NCI-H2087 | 0.678
NCI-H2342 | 0.775
SK-MES-1 | 0.925
H3255 | 0.573
COR-L23 | 0.2
COR-L 105 | 0.954
LOU-NH91 | 0.425
ChaGo-K-1 | 0.273
NCI-H2170 | 0.265
HCC-44 | 0.658
NCI-H1648 | 0.712
NCI-H661 | 0.893
NCI-H1792 | 0.721
NCI-H1563 | 0.652
NCI-H358 | 0.175
NCI-H650 | 0.893

Same assay, conditions: first compound 2.53 µM

Cell Line | relative viability
NCI-H522 | 0.793
NCI-H1650 | 0.428
NCI-H1993 | 0.598
SW 1573 | 0.789
NCI-H838 | 0.255
LCLC-103H | 0.48
NCI-H520 | 0.699
NCI-H2126 | 0.597
EMC-BAC-2 | 0.463
NCI-H2085 | 0.893
HCC-366 | 0.188
NCI-H1666 | 0.874
NCI-H596 | 0.549
LK-2 | 0.22
NCI-H2087 | 0.647
NCI-H2342 | 0.768
SK-MES-1 | 0.861
H3255 | 0.632
COR-L23 | 0.201
COR-L 105 | 0.912
LOU-NH91 | 0.347
ChaGo-K-1 | 0.265
NCI-H2170 | 0.267
HCC-44 | 0.633
SW 900 | 0.506
NCI-H1648 | 0.807
NCI-H661 | 0.901
NCI-H1792 | 0.899
NCI-H1563 | 0.854
NCI-H358 | 0.184

Same assay, conditions: first compound 8 µM

Cell Line | relative viability
NCI-H522 | 1.05
NCI-H1650 | 0.362
NCI-H1993 | 0.637
SW 1573 | 0.763
NCI-H838 | 0.235
LCLC-103H | 0.428
NCI-H520 | 0.622
NCI-H2126 | 0.668
EMC-BAC-2 | 0.398
NCI-H2085 | 0.888
HCC-366 | 0.176
NCI-H1666 | 0.718
NCI-H596 | 0.455
LK-2 | 0.202
NCI-H2087 | 0.697
NCI-H2342 | 0.679

Cell Line | relative viability
SK-MES-1 | 0.874
H3255 | 0.499
COR-L23 | 0.173
COR-L 105 | 1
LOU-NH91 | 0.361
ChaGo-K-1 | 0.248
NCI-H2170 | 0.262
HCC-44 | 0.667
SW 900 | 0.485
NCI-H1648 | 0.529
NCI-H661 | 0.879
NCI-H1792 | 0.919
NCI-H1563 | 0.613
NCI-H358 | 0.172
NCI-H650 | 0.893

Source: the supplement of paper PMC10307832
